Assay results as given in US7678809B2 (priority 1999, dated 2010).

What was measured:
Type in all cases: biochemical
[1] = target: T1, human opioid receptor-like receptor (ORL-1) (Homo sapiens, UniProt P41146); settings: read-out: Nociceptin Affinity calc Ki
T1 construct: host or cells: HEK-293

[2] = target: Mu opioid receptor (Homo sapiens, UniProt P35372); settings: read-out: calc Ki (nM) μ
[3] = target: kappa opioid receptor (Homo sapiens, UniProt P41145); settings: read-out: calc Ki (nM) k
[4] = target: delta opioid receptor (Homo sapiens, UniProt P41143); settings: read-out: calc Ki (nM) δ2
Chain of delta opioid receptor (P41143 whole entry): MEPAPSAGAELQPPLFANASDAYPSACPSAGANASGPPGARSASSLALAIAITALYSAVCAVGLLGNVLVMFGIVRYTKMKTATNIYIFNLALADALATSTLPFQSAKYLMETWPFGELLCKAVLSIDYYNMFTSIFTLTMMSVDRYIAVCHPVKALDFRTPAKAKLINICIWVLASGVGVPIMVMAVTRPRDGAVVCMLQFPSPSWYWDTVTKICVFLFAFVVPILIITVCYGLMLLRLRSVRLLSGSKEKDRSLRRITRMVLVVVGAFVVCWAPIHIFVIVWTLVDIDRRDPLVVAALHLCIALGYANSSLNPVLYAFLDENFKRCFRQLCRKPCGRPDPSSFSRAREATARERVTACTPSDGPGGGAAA

T1 sequence (P41146 whole entry): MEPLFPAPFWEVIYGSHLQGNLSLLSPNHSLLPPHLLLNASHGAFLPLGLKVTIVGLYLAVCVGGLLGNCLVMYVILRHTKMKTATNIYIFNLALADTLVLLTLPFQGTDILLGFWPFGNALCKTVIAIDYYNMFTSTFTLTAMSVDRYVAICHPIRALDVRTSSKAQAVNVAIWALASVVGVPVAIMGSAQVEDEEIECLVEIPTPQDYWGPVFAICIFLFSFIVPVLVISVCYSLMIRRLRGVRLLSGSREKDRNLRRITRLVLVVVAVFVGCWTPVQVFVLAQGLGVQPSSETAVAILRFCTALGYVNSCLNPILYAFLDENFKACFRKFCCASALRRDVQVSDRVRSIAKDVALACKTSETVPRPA
Chain of kappa opioid receptor (P41145 whole entry): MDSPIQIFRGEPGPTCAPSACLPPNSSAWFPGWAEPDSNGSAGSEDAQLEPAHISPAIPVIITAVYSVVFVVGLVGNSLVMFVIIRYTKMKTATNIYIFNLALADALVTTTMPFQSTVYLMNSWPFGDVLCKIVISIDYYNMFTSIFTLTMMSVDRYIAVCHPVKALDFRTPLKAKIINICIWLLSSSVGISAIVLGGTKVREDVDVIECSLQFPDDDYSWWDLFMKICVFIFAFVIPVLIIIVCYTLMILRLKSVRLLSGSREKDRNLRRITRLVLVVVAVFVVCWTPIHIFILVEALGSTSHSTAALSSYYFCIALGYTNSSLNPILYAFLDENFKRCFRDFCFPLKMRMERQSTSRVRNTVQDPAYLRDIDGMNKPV
Chain of Mu opioid receptor (P35372 whole entry): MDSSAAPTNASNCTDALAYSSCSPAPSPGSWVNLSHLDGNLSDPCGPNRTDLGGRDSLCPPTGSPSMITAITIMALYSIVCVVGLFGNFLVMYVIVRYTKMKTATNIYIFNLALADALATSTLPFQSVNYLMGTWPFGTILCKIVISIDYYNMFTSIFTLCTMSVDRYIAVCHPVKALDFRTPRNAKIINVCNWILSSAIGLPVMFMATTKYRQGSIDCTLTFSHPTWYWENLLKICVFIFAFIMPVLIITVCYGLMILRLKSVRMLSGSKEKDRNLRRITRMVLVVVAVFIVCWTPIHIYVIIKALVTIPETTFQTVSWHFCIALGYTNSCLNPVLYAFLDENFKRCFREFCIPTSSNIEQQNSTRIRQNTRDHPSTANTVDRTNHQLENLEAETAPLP

| Compound | Ki [1] [nM] | Ki [2] [nM] | Ki [3] [nM] | Ki [4] [nM] |
| --- | --- | --- | --- | --- |
| 1-[4-(4-propyl-1,2-cyclohexene)-4-piperidinyl]-1,3-dihydro-2H-1,3-benzamidazol-2-one | 469 | 265 | 1500 | 1220 |
| 1-[4-(4-propylcyclohexane)-4-piperidinyl]-3-[1-oxo-ethyl]-1,3-dihydro-2H-1,3-benzamidazol-2-one | 464 | 23.2 | 1600 | > 10000 |
| O=c1[nH]c2ccccc2n1C1CCN(CCCC(c2ccc(F)cc2)c2ccc(F)cc2)CC1 [1-[4-(4,4-difluorophenylbutyl)-4-piperidinyl]-1,3-dihydro-2H-1,3-benzamidazol-2-one] | 420 | – | – | – |
